Results reported in PubChem BioAssay AID602296 (Broad Institute, 2012).
Inconclusive results are not listed. Activity calls are given as the source filed them.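 The calls were made as follows: active = fitted activation curve crossing 40% at a concentration no higher than the sample's top valid tested dose; inconclusive = flat fitted curve at 30% to 70% activation, or poor curve fit; inactive = signal decrease, flat curve within 30%, or the rest.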

These compounds were tested on NIH3T3-HGL HSF-1 response element luciferase, 48 h (assay: sustained heat shock response element induction – cell-based, mouse, luciferase, cherry-pick, dose, confirmation (AID 602296);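 also: test compounds applied by themselves with no MG132 co-treatment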).

**Q.** `Cc1ccc(O)c(CNc2nccs2)c1` was tested. Which AC40 did it give?
**A.** 24.5 µM

**Q.** With `COC(=O)c1nnn(CC(=O)NC(=O)Nc2ccc(F)cc2)c1C(=O)OC` as the compound, how does the AC40 read?
**A.** > 26 µM (inactive)

**Q.** `CCOC(=O)Cn1nnc(-c2cccc(OC)c2)n1` was tested. Which AC40 did it give?
**A.** 12.8 µM

**Q.** How did the AC40 turn out when `O=C(Nc1ccc(Br)cn1)c1ccc([N+](=O)[O-])o1` was run?
**A.** > 26 µM (inactive)

**Q.** Which AC40 does the source give for `O=C1Nc2ccccc2/C1=C/c1cnc[nH]1` here?
**A.** > 26 µM (inactive)

**Q.** `COc1ccc2c(c1OC)C(=O)OC2Nc1nc(-c2ccccc2)cs1` (centres undefined) was tested. Which AC40 did it give?
**A.** > 26 µM (inactive)

**Q.** With `CC1(C)CC(=O)C(C2C3=C(CC(C)(C)CC3=O)OC3=C2C(=O)CC(C)(C)C3)=C(O)C1` as the compound, how does the AC40 read?
**A.** > 26 µM (inactive)

**Q.** With `CCOC(=O)C1CCN(C(=O)c2ccc3c(Cl)c4c(nc3c2)CCCC4)CC1` as the compound, how does the AC40 read?
**A.** > 26 µM (inactive)

**Q.** `CC(=NCc1ccco1)C1=C(O)c2ccccc2C1=O` was tested. Which AC40 did it give?
**A.** 16.6 µM

**Q.** With `O=C1CCCN1CCCN=c1c([N+](=O)[O-])nn(-c2ccc(Cl)cc2)n1O` as the compound, how does the AC40 read?
**A.** > 12 µM (inactive)

**Q.** For `Cn1c(CO)cnc1SCC(=O)c1ccc(Cl)cc1`, which AC40 is on record?
**A.** 8.6 µM

**Q.** With `Nc1nnc(CSCc2ccccc2Cl)s1` as the compound, how does the AC40 read?
**A.** > 26 µM (inactive)

**Q.** How did the AC40 turn out when `CC1=Nc2ccccc2/C1=C/c1nc(-c2ccc(C)s2)oc1O` was run?
**A.** 10.1 µM

**Q.** For `CCCn1c(SCC(=O)c2cc(OC)ccc2OC)nnc1C(C)C`, which AC40 is on record?
**A.** > 26 µM (inactive)

**Q.** `COc1ccc(/C=C(\C#N)C(=O)Nc2cccc(C)n2)cc1` was tested. Which AC40 did it give?
**A.** > 26 µM (inactive)

**Q.** With `COc1ccc(-c2nc(C#N)c(N3CCCCC3)o2)cc1` as the compound, how does the AC40 read?
**A.** > 26 µM (inactive)

**Q.** With `Cc1ccccc1N1CCN(S(=O)(=O)Cc2ccccc2)CC1` as the compound, how does the AC40 read?
**A.** > 26 µM (inactive)

**Q.** How did the AC40 turn out when `Cc1ccc(CSc2nc3ccccc3c(=O)n2CCCC(=O)NCc2ccco2)cc1` was run?
**A.** > 26 µM (inactive)

**Q.** Which AC40 does the source give for `O=C1CCC(/C=C/c2ccccc2)=NN1` here?
**A.** > 26 µM (inactive)
